The species named for experiment [1] is Homo sapiens. Briefly: Inhibition of human recombinant DNA topoisomerase 2 assessed as reduction in enzyme-mediated relaxation of supercoiled pBR322 plasmid DNA at 20 uM in presence of 0.1% BSA by ethidium bromide staining based gel electrophoresis and UV spectroscopy.
Experiment [2] is filed under the species Homo sapiens. Nature of the experiment: Inhibition of human recombinant DNA topoisomerase 2 assessed as reduction in enzyme-mediated relaxation of supercoiled pBR322 plasmid DNA at 20 uM in presence of 0.1% BSA by ethidium bromide staining based gel electrophoresis and UV spectroscopy relative to etoposide.
In experiment [3] the target is T1, DNA topoisomerase 1 (Homo sapiens) (UniProt P11387).
T1 sequence (whole entry): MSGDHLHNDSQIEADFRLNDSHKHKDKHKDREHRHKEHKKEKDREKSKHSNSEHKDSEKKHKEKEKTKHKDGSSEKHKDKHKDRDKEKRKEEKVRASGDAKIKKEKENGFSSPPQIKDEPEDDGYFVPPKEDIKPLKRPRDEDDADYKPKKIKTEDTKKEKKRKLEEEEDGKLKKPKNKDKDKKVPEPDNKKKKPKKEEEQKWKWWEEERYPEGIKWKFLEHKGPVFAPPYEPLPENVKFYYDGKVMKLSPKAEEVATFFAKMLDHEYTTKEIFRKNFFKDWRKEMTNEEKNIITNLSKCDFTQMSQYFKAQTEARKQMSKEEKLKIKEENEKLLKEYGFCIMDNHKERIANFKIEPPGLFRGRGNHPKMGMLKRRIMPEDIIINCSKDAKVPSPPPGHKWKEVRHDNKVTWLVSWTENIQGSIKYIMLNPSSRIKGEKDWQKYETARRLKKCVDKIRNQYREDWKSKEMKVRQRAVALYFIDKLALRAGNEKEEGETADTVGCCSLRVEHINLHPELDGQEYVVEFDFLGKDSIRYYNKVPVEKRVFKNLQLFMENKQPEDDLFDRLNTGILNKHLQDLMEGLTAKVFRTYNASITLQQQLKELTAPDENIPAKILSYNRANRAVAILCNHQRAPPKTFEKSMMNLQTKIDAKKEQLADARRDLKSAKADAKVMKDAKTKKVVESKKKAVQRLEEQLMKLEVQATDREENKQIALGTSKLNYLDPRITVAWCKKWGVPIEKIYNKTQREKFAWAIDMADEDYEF
Briefly: Inhibition of human recombinant DNA topoisomerase 1 assessed as reduction in enzyme-mediated relaxation of supercoiled pBR322 plasmid DNA at 100 uM in presence of 0.1% BSA by ethidium bromide staining based gel electrophoresis and UV spectroscopy.

The test system of a further experiment is HCT-15. Nature of the experiment: Antiproliferative activity against human HCT15 cells after 72 hrs by CCK8 assay. Format: functional, cell-based. Conditions: HCT-15, 72 h. (In general: Tetrazolium dyes change colour on reduction, which living cells bring about.)
The species named for experiment [4] is Homo sapiens. Briefly: Inhibition of human recombinant DNA topoisomerase 2 assessed as reduction in enzyme-mediated relaxation of supercoiled pBR322 plasmid DNA at 100 uM in presence of 0.1% BSA by ethidium bromide staining based gel electrophoresis and UV spectroscopy.
The species entered for experiment [5] is Homo sapiens. Briefly: Inhibition of human recombinant DNA topoisomerase 2 assessed as reduction in enzyme-mediated relaxation of supercoiled pBR322 plasmid DNA at 100 uM in presence of 0.1% BSA by ethidium bromide staining based gel electrophoresis and UV spectroscopy relative to etoposide.
A further experiment has as its system T47D. Nature of the experiment: Antiproliferative activity against human T47D cells after 72 hrs by CCK8 assay. Format: functional, cell-based.
Experiment [6] concerns the target T1, DNA topoisomerase 1 (Homo sapiens). Nature of the experiment: Inhibition of human recombinant DNA topoisomerase 1 assessed as reduction in enzyme-mediated relaxation of supercoiled pBR322 plasmid DNA at 100 uM in presence of 0.1% BSA by ethidium bromide staining based gel electrophoresis and UV spectroscopy relative to camptothecin.
The subject of the next experiment is HeLa. Briefly: Antiproliferative activity against human HeLa cells after 72 hrs by CCK8 assay. Format: functional, cell-based.

A word on the inhibition: it is the drop in the measured response relative to a control, in per cent. Broadly, the IC50 is the concentration at which inhibition is half-maximal. `Clc1ccc(-c2cc(-c3cccs3)c3oc4ccccc4c3n2)cc1`: the inhibition in the experiment filed under Homo sapiens [1] amounted to 15.1%; in experiment [3], 100%; in the experiment filed under Homo sapiens [4], 58.5%. Besides, the fold change (FC) in the experiment filed under Homo sapiens [2] was 0.41; in the experiment listed under Homo sapiens [5] it was 0.89; in experiment [6] it was 1.15. The IC50 in the experiment with HCT-15, in the experiment on T47D and in the experiment with HeLa was above 50 µM throughout.

With `Clc1ccccc1-c1cc(-c2ccco2)c2oc3ccccc3c2n1`, the inhibition in the experiment filed under Homo sapiens [1] came out at 5.1%; in experiment [3], 86.1%; in the experiment filed under Homo sapiens [4], 59.4%. In addition, the fold change (FC) in the experiment filed under Homo sapiens [2] was found to be 0.14; in the experiment listed under Homo sapiens [5], 0.9; in experiment [6], 0.99. In addition, the values for the IC50 with HCT-15, with T47D and in the experiment on HeLa were 21.7 µM, above 50 µM and above 50 µM, respectively.

Take `Clc1ccccc1-c1cc(-c2ccccc2)c2oc3ccccc3c2n1`: the figures for the inhibition (in the experiment filed under Homo sapiens [1]; in experiment [3]; in the experiment listed under Homo sapiens [4]) were 6.9%, 33% and 58.2%, respectively. Also, the fold change (FC) in the experiment filed under Homo sapiens [2] turned out to be 0.19; in the experiment listed under Homo sapiens [5], 0.88; in [6], 0.38. The IC50 stood at 19.4 µM with HCT-15, 19.5 µM in the experiment on T47D and 21.7 µM in the experiment with HeLa.

For the compound `Clc1cccc(-c2cc(-c3cccs3)c3oc4ccccc4c3n2)c1`, the inhibition in the experiment filed under Homo sapiens [1] stood at 17.3%; in [3], 85.1%; in the experiment listed under Homo sapiens [4] it was 85.3%. In addition, the results for the fold change (FC) (in the experiment filed under Homo sapiens [2]; in the experiment listed under Homo sapiens [5]; in experiment [6]) were 0.47, 1.29 and 0.98, respectively. The IC50 was 19.3 µM with HCT-15, 17.2 µM in the experiment with T47D and above 50 µM in the experiment on HeLa.

In the case of `Clc1ccc(-c2cc(-c3ccco3)c3oc4ccccc4c3n2)cc1`, the inhibition in the experiment filed under Homo sapiens [1] came out at 80.9%; in experiment [3] it was 100%; in the experiment listed under Homo sapiens [4] it was 96.2%. Further, the fold change (FC) in the experiment listed under Homo sapiens [2] is 2.2; in the experiment filed under Homo sapiens [5], 1.46; in experiment [6], 1.15. Also, the IC50 with HCT-15 was above 50 µM; in the experiment on T47D, 13.2 µM; in the experiment on HeLa it was 36.5 µM.

`Clc1cccc(-c2cc(-c3ccsc3)c3oc4ccccc4c3n2)c1`: the inhibition is 12.2% in the experiment filed under Homo sapiens [1], 70.2% in experiment [3] and 93.8% in the experiment filed under Homo sapiens [4]. The fold change (FC) was 0.39 in the experiment filed under Homo sapiens [2], 1.79 in the experiment filed under Homo sapiens [5] and 0.81 in experiment [6]. Besides, the results for the IC50 in the experiment on HCT-15, in the experiment on T47D and in the experiment on HeLa were 13.5 µM, 13.2 µM and above 50 µM, respectively.

Turning to `Clc1ccc(-c2cc(-c3ccoc3)c3oc4ccccc4c3n2)cc1`, the inhibition in the experiment listed under Homo sapiens [1] came to 82.1%; in [3] it was 86.5%; in the experiment filed under Homo sapiens [4], 88.7%. The fold change (FC) in the experiment filed under Homo sapiens [2] worked out at 2.61; in the experiment filed under Homo sapiens [5], 1.7; in experiment [6] it was 0.95. The IC50 with HCT-15 worked out at 38.6 µM; in the experiment with T47D, 18.5 µM; in the experiment on HeLa, 16.6 µM.

As to `Clc1ccc(-c2cc(-c3ccc(Cl)o3)c3oc4ccccc4c3n2)cc1`, the inhibition in the experiment filed under Homo sapiens [1] is 73.7%; in [3], 98.9%; in the experiment listed under Homo sapiens [4], 100%. For the same compound, the fold change (FC) in the experiment filed under Homo sapiens [2] worked out at 2.34; in the experiment listed under Homo sapiens [5], 1.91; in experiment [6], 0.81. The IC50 with HCT-15 is above 50 µM; with T47D it was 11.4 µM; in the experiment with HeLa it was 16.4 µM.

On to `Clc1cccc(-c2cc(-c3ccco3)c3oc4ccccc4c3n2)c1`, for which the results for the inhibition (in the experiment listed under Homo sapiens [1]; in experiment [3]; in the experiment listed under Homo sapiens [4]) were 55.4%, 100% and 85.5%, respectively. Besides, the fold change (FC) came out at 1.51 in the experiment listed under Homo sapiens [2], 1.3 in the experiment listed under Homo sapiens [5] and 1.15 in experiment [6]. Moreover, the IC50 in the experiment on HCT-15 is above 50 µM; in the experiment with T47D, 23.2 µM; with HeLa, 40.8 µM.

On to `Clc1cccc(-c2cc(-c3ccccc3)c3oc4ccccc4c3n2)c1`, for which the inhibition in the experiment listed under Homo sapiens [1] was determined as 14.8%; in experiment [3], 80.6%; in the experiment filed under Homo sapiens [4], 83%. The fold change (FC) in the experiment listed under Homo sapiens [2] is 0.4; in the experiment listed under Homo sapiens [5] it was 1.26; in experiment [6], 0.93. Further, the figures for the IC50 in the experiment with HCT-15, in the experiment with T47D and in the experiment with HeLa were above 50 µM, 33.6 µM and 37.2 µM, respectively.

As for `Clc1ccc(-c2cc(-c3ccsc3)c3oc4ccccc4c3n2)cc1`, the inhibition in the experiment filed under Homo sapiens [1] was 10.1%; in [3], 79.9%; in the experiment filed under Homo sapiens [4], 95.7%. The fold change (FC) in the experiment filed under Homo sapiens [2] came out at 0.32; in the experiment listed under Homo sapiens [5], 1.83; in experiment [6] it was 0.92. Moreover, the IC50 with HCT-15, with T47D and in the experiment with HeLa was above 50 µM throughout.

For the origin of these results see ChEMBL document CHEMBL4052690, “2-Chlorophenyl-substituted benzofuro[3,2-b]pyridines with enhanced topoisomerase inhibitory activity: The role of the chlorine substituent” (Bioorg Med Chem Lett, 2017).
